Measurements from ChEMBL document CHEMBL4610081, “Anti-inflammatory Metabolites from Chaetomium nigricolor” (J Nat Prod, 2020).

System: RAW264.7
Assay: Antiinflammatory activity against mouse RAW264.7 cells assessed as inhibition of LPS-induced NO production preincubated for 3 hrs followed by LPS-stimulation and measured after 24 hrs by Griess reagent based assay
Assay type: functional, cell-based

COc1cc(OC)c2c(O)c3c(=O)cc(C)oc3c(-c3c(OC)cc4cc(O)c5c(=O)cc(C)oc5c4c3OC)c2c1 (atropisomer aS) [FONSECINONE A]
Activity: Dose-dependent effect | IC50: 7 µM
